Key:
Assay type in all cases: in vivo
[1] = tested on: barnyardgrass (Echinochloa crus-galli); assay: Test A preemergence barnyardgrass; settings: 0 to 100 scale, 0 no effect, 100 complete control
Summary of the method: (§1)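 Directed soil spray at planting gives preemergence data; foliar application to one- to two-leaf plants gives postemergence data. Response is visual injury relative to untreated controls about 10 d after treatment, scored 0–100.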

kochia (Kochia scoparia) [2] = assay: Test A preemergence kochia; settings: 0 to 100 scale, 0 no effect, 100 complete control
Summary of the method: as §1

[3] = tested on: ragweed (common ragweed, Ambrosia elatior); assay: Test A preemergence ragweed; settings: 0 to 100 scale, 0 no effect, 100 complete control
Summary of the method: as §1

[4] = tested on: ryegrass, Italian (Italian ryegrass, Lolium multiflorum); assay: Test A preemergence ryegrass, Italian; settings: 0 to 100 scale, 0 no effect, 100 complete control
Summary of the method: as §1

[5] = tested on: foxtail, giant (giant foxtail, Setaria faberii); assay: Test A preemergence foxtail, giant; settings: 0 to 100 scale, 0 no effect, 100 complete control
Summary of the method: as §1

[6] = tested on: pigweed (Amaranthus retroflexus); assay: Test A preemergence pigweed; settings: 0 to 100 scale, 0 no effect, 100 complete control
Summary of the method: as §1

[7] = tested on: barnyardgrass (Echinochloa crus-galli); assay: Test A postemergence barnyardgrass; settings: 0 to 100 scale, 0 is no effect, 100 is complete control
Summary of the method: as §1

kochia (Kochia scoparia) [8] = assay: Test A postemergence kochia; settings: 0 to 100 scale, 0 is no effect, 100 is complete control
Summary of the method: as §1

[9] = tested on: ragweed (common ragweed, Ambrosia elatior); assay: Test A postemergence ragweed; settings: 0 to 100 scale, 0 is no effect, 100 is complete control
Summary of the method: as §1

[10] = tested on: ryegrass, Italian (Italian ryegrass, Lolium multiflorum); assay: Test A postemergence ryegrass, Italian; settings: 0 to 100 scale, 0 is no effect, 100 is complete control
Summary of the method: as §1

[11] = tested on: foxtail, giant (giant foxtail, Setaria faberii); assay: Test A postemergence foxtail, giant; settings: 0 to 100 scale, 0 is no effect, 100 is complete control
Summary of the method: as §1

[12] = tested on: pigweed (Amaranthus retroflexus); assay: Test A postemergence pigweed; settings: 0 to 100 scale, 0 is no effect, 100 is complete control
Summary of the method: as §1

[13] = tested on: wheat (Triticum aestivum); assay: Test A postemergence wheat; settings: 0 to 100 scale, 0 is no effect, 100 is complete control
Summary of the method: as §1

corn (Zea mays) = assay: Test A postemergence corn; settings: 0 to 100 scale, 0 is no effect, 100 is complete control
Summary of the method: as §1

[14] = tested on: blackgrass (Alopecurus myosuroides); assay: Test A postemergence blackgrass; settings: 0 to 100 scale, 0 is no effect, 100 is complete control
Summary of the method: as §1

[15] = tested on: galium (catchweed bedstraw, Galium aparine); assay: Test A postemergence galium; settings: 0 to 100 scale, 0 is no effect, 100 is complete control
Summary of the method: as §1

rice (Oryza sativa) = assay: Test B flooded paddy test rice; settings: Table B, Flood
Summary of the method: (§2)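 2-leaf plants; flood 3 cm over soil; cpd into paddy water; water depth kept; greenhouse 13–15 d; visual rating vs controls.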

[16] = tested on: sedge, umbrella (small-flower umbrella sedge, Cyperus difformis); assay: Test B flooded paddy test sedge, umbrella; settings: Table B, Flood
Summary of the method: as §2

[17] = tested on: ducksalad (Heteranthera limosa); assay: Test B flooded paddy test ducksalad; settings: Table B, Flood
Summary of the method: as §2

[18] = tested on: barnyardgrass (Echinochloa crus-galli); assay: Test B flooded paddy test barnyardgrass; settings: Table B, Flood
Summary of the method: as §2

O=C1NCCC(c2cccc(C(F)(F)F)c2)C1C(=O)Nc1ccc(F)c(F)c1F (stereo not drawn) [Compound 30, 2-oxo-4-[3-(trifluoromethyl)phenyl]-N-(2,3,4-trifluorophenyl)-3-piperidinecarboxamide]
pest or weed control at 125 g/ha ([1]; Echinochloa crus-galli, pre-emergence, 240 h, 125 g ai/ha, read-out: Barnyardgrass plant response rating): 90%
pest or weed control at 500 g/ha ([1]; Echinochloa crus-galli, pre-emergence, 240 h, 500 g ai/ha, read-out: Barnyardgrass plant response rating): 90%
pest or weed control at 125 g/ha (kochia (Kochia scoparia) [2]; Bassia scoparia, pre-emergence, 240 h, 125 g ai/ha, read-out: Kochia plant response rating): 0%
pest or weed control at 500 g/ha (kochia (Kochia scoparia) [2]; Bassia scoparia, pre-emergence, 240 h, 500 g ai/ha, read-out: Kochia plant response rating): 0%
pest or weed control at 125 g/ha ([3]; Ambrosia artemisiifolia, pre-emergence, 240 h, 125 g ai/ha, read-out: Ragweed plant response rating): 0%
pest or weed control at 500 g/ha ([3]; Ambrosia artemisiifolia, pre-emergence, 240 h, 500 g ai/ha, read-out: Ragweed plant response rating): 0%
pest or weed control at 125 g/ha ([4]; Lolium multiflorum, pre-emergence, 240 h, 125 g ai/ha, read-out: Ryegrass, Italian plant response rating): 20%
pest or weed control at 500 g/ha ([4]; Lolium multiflorum, pre-emergence, 240 h, 500 g ai/ha, read-out: Ryegrass, Italian plant response rating): 50%
pest or weed control at 125 g/ha ([5]; Setaria faberi, pre-emergence, 240 h, 125 g ai/ha, read-out: Foxtail, Giant plant response rating): 90%
pest or weed control at 500 g/ha ([5]; Setaria faberi, pre-emergence, 240 h, 500 g ai/ha, read-out: Foxtail, Giant plant response rating): 90%
pest or weed control at 125 g/ha ([6]; Amaranthus retroflexus, pre-emergence, 240 h, 125 g ai/ha, read-out: Pigweed plant response rating): 0%
pest or weed control at 500 g/ha ([6]; Amaranthus retroflexus, pre-emergence, 240 h, 500 g ai/ha, read-out: Pigweed plant response rating): 0%
pest or weed control at 125 g/ha ([7]; Echinochloa crus-galli, post-emergence, 240 h, 125 g ai/ha, read-out: Plant response rating, Barnyardgrass): 80%
pest or weed control at 500 g/ha ([7]; Echinochloa crus-galli, post-emergence, 240 h, 500 g ai/ha, read-out: Plant response rating, Barnyardgrass): 80%
pest or weed control at 125 g/ha (kochia (Kochia scoparia) [8]; Bassia scoparia, post-emergence, 240 h, 125 g ai/ha, read-out: Plant response rating, Kochia): 0%
pest or weed control at 500 g/ha (kochia (Kochia scoparia) [8]; Bassia scoparia, post-emergence, 240 h, 500 g ai/ha, read-out: Plant response rating, Kochia): 0%
pest or weed control at 125 g/ha ([9]; Ambrosia artemisiifolia, post-emergence, 240 h, 125 g ai/ha, read-out: Plant response rating, Ragweed): 0%
pest or weed control at 500 g/ha ([9]; Ambrosia artemisiifolia, post-emergence, 240 h, 500 g ai/ha, read-out: Plant response rating, Ragweed): 0%
pest or weed control at 125 g/ha ([10]; Lolium multiflorum, post-emergence, 240 h, 125 g ai/ha, read-out: Plant response rating, Ryegrass, Italian): 0%
pest or weed control at 500 g/ha ([10]; Lolium multiflorum, post-emergence, 240 h, 500 g ai/ha, read-out: Plant response rating, Ryegrass, Italian): 20%
pest or weed control at 125 g/ha ([11]; Setaria faberi, post-emergence, 240 h, 125 g ai/ha, read-out: Plant response rating, Foxtail, Giant): 80%
pest or weed control at 500 g/ha ([11]; Setaria faberi, post-emergence, 240 h, 500 g ai/ha, read-out: Plant response rating, Foxtail, Giant): 80%
pest or weed control at 125 g/ha ([12]; Amaranthus retroflexus, post-emergence, 240 h, 125 g ai/ha, read-out: Plant response rating, Pigweed): 0%
pest or weed control at 500 g/ha ([12]; Amaranthus retroflexus, post-emergence, 240 h, 500 g ai/ha, read-out: Plant response rating, Pigweed): 0%
plant injury at 125 g/ha ([13]; Triticum aestivum, post-emergence, 240 h, 125 g ai/ha, read-out: Plant response rating, Wheat): 30%
plant injury at 500 g/ha ([13]; Triticum aestivum, post-emergence, 240 h, 500 g ai/ha, read-out: Plant response rating, Wheat): 60%
Corn plant response rating (crop injury, 0 = no effect, 100 = complete kill) at 125 g/ha (corn (Zea mays); Zea mays, post-emergence, 240 h, 125 g ai/ha): 30%
Corn plant response rating (crop injury, 0 = no effect, 100 = complete kill) at 500 g/ha (corn (Zea mays); Zea mays, post-emergence, 240 h, 500 g ai/ha): 70%
pest or weed control at 125 g/ha ([14]; Alopecurus myosuroides, post-emergence, 240 h, 125 g ai/ha, read-out: Plant response rating, Blackgrass): 70%
pest or weed control at 500 g/ha ([14]; Alopecurus myosuroides, post-emergence, 240 h, 500 g ai/ha, read-out: Plant response rating, Blackgrass): 80%
pest or weed control at 125 g/ha ([15]; Galium, post-emergence, 240 h, 125 g ai/ha, read-out: Plant response rating, Galium): 0%
pest or weed control at 500 g/ha ([15]; Galium, post-emergence, 240 h, 500 g ai/ha, read-out: Plant response rating, Galium): 0%
plant injury at 250 g/ha (rice (Oryza sativa); Oryza sativa, 250 g ai/ha, scale 0 to 100, read-out: Plant response rating): 20%
pest or weed control at 250 g/ha ([16]; Cyperus difformis, 250 g ai/ha, scale 0 to 100, read-out: Plant response rating): 0%
pest or weed control at 250 g/ha ([17]; Heteranthera limosa, 250 g ai/ha, scale 0 to 100, read-out: Plant response rating): 50%
pest or weed control at 250 g/ha ([18]; Echinochloa crus-galli, 250 g ai/ha, scale 0 to 100, read-out: Plant response rating): 50%

O=C1NCCC(c2cccc(C(F)(F)F)c2)C1C(=O)Nc1ccccc1Cl (racemic) [Compound 17]
Barnyardgrass plant response rating ([1]; 125 g ai/ha): 50
Barnyardgrass plant response rating ([1]; 500 g ai/ha): 80
Kochia plant response rating (kochia (Kochia scoparia) [2]; 125 g ai/ha): 30
Kochia plant response rating (kochia (Kochia scoparia) [2]; 500 g ai/ha): 30
Ragweed plant response rating ([3]; 125 g ai/ha): 0
Ragweed plant response rating ([3]; 500 g ai/ha): 0
Ryegrass, Italian plant response rating ([4]; 125 g ai/ha): 20
Ryegrass, Italian plant response rating ([4]; 500 g ai/ha): 40
Foxtail, Giant plant response rating ([5]; 125 g ai/ha): 80
Foxtail, Giant plant response rating ([5]; 500 g ai/ha): 90
Pigweed plant response rating ([6]; 125 g ai/ha): 0
Pigweed plant response rating ([6]; 500 g ai/ha): 0
Plant response rating, Barnyardgrass ([7]; 125 g ai/ha): 80
Plant response rating, Barnyardgrass ([7]; 500 g ai/ha): 80
Plant response rating, Kochia (kochia (Kochia scoparia) [8]; 125 g ai/ha): 0
Plant response rating, Kochia (kochia (Kochia scoparia) [8]; 500 g ai/ha): 20
Plant response rating, Ragweed ([9]; 125 g ai/ha): 0
Plant response rating, Ragweed ([9]; 500 g ai/ha): 0
Plant response rating, Ryegrass, Italian ([10]; 125 g ai/ha): 0
Plant response rating, Ryegrass, Italian ([10]; 500 g ai/ha): 20
Plant response rating, Foxtail, Giant ([11]; 125 g ai/ha): 80
Plant response rating, Foxtail, Giant ([11]; 500 g ai/ha): 80
Plant response rating, Pigweed ([12]; 125 g ai/ha): 0
Plant response rating, Pigweed ([12]; 500 g ai/ha): 0
Plant response rating, Wheat ([13]; 125 g ai/ha): 20
Plant response rating, Wheat ([13]; 500 g ai/ha): 20
Plant response rating, Corn (corn (Zea mays); 125 g ai/ha): 0
Plant response rating, Corn (corn (Zea mays); 500 g ai/ha): 0
Plant response rating, Blackgrass ([14]; 125 g ai/ha): 30
Plant response rating, Blackgrass ([14]; 500 g ai/ha): 30
Plant response rating, Galium ([15]; 125 g ai/ha): 20
Plant response rating, Galium ([15]; 500 g ai/ha): 20
Plant response rating (rice (Oryza sativa); 500 g ai/ha, scale 0 to 100): 0
Plant response rating ([16]; 500 g ai/ha, scale 0 to 100): 0
Plant response rating ([17]; 500 g ai/ha, scale 0 to 100): 40
Plant response rating ([18]; 500 g ai/ha, scale 0 to 100): 35

Source: patent US9944602B2, “Piperidinone herbicides” (E. I. DU PONT DE NEMOURS AND COMPANY, priority 2014, dated 2018)
